Laboratory results: US20240408069A1, “NON-INVASIVE MONITORING OF LIVER DISEASE TREATMENT” (INVENTIVA, priority 2023, published 2024)

Assays:
[1] = tested on: adult patients with highly active, non-cirrhotic NASH; test: NATIVE phase 2b trial, histological response on liver biopsy after 24 weeks of lanifibranor; format: in vivo, human
Excerpt: Patients were eligible for inclusion if they were 18 years of age or older and had non-cirrhotic NASH (the diagnosis of which required a Steatosis, Activity, Fibrosis [SAF] grade of 1 or higher for steatosis, hepatocellular ballooning and lobular inflammation on liver biopsy). A score of 3 or higher on the SAF-A (the activity part of the SAF scoring system that incorporates the scores for hepatocellular ballooning and lobular inflammation) was also a criterion for eligibility. Patients with stage F4 fibrosis, classified according to the criteria of both the SAF and NASH Clinical Research Network (NASH CRN) were excluded from the study. Patients were randomly assigned in a 1:1:1 ratio to receive 800 or 1200 mg lanifibranor or placebo once daily for 24 weeks. Liver biopsy was obtained at baseline and at the end of treatment. The primary end point of the NATIVE study was defined as a decrease of at least 2 points from baseline to Week 24 (end of treatment) in the SAF-A score and no worsening of fibrosis. Secondary histologic end points included resolution of NASH (defined as a ballooning grade of 0 and a lobular inflammation grade of ≤1) and no worsening of fibrosis; improvement in fibrosis of at least 1 stage and no worsening of NASH (i.e., no worsening in either steatosis, ballooning, or lobular inflammation); Nonalcoholic Fatty Liver Disease Activity Score (NAS) improvement (defined as a decrease of >2 points from baseline to week 24 in the NAS) and no worsening of fibrosis; resolution of NASH and an improvement in fibrosis stage of at least 1 (as a composite end point); change in scores for the components of the SAF and NASH CRN scoring system (steatosis, activity, inflammation, ballooning, and fibrosis); and change in the modified Ishak score. Non-histologic secondary endpoints included changes in a panel of serum biomarkers related to metabolism, inflammation tissue injury and fibrosis. Patients receiving lanifibranor 800 or 1200 mg per day were pooled and those with pre- and post-treatment liver biopsies were selected (n=142). Post-treatment biopsies were considered if they occurred within 14 days following last lanifibranor intake. The following histological endpoint according to NASH-CRN criteria was considered: NASH resolution and fibrosis improvement of at least 1 stage (E1). In the NATIVE trial, from February 2017 through July 2019, 247 patients were randomly assigned to receive 1200 mg of lanifibranor (N=83), 800 mg of lanifibranor (N=83), or placebo (N=81) orally once daily for 6 months. A total of 228 patients completed the trial, 77 in each lanifibranor group and 74 in the placebo group. Reasons for discontinuation of the trial regimen have been reported elsewhere. Finally, among the 154 patients treated with lanifibranor at both doses, 142 patients (N=70 and N=72 patients treated with 800 or 1200 mg per day, respectively) presented with pre- and post-treatment liver biopsies within the time frame required for the present work and were included in the analysis population for signature development.

[2] = tested on: adult patients with highly active, non-cirrhotic NASH; conditions: cited from earlier work

Question: What does the source list for `O=C(O)CCCc1cc2cc(Cl)ccc2n1S(=O)(=O)c1ccc2ncsc2c1` [lanifibranor, 4-[1-(1,3-benzothiazol-6-ylsulfonyl)-5-chloroindol-2-yl] butanoic acid]?
Answer: Resolution of NASH and improvement of liver fibrosis ≥1 Stage (E1), number of patients reaching endpoint ([1]; 800 mg once daily, N=70): 17 patients; Resolution of NASH and improvement of liver fibrosis ≥1 Stage (E1), patients reaching endpoint ([1]; 800 mg once daily, N=70): 24%; Resolution of NASH and improvement of liver fibrosis ≥1 Stage (E1), number of patients reaching endpoint ([1]; 1200 mg once daily, N=72): 25 patients; Resolution of NASH and improvement of liver fibrosis ≥1 Stage (E1), patients reaching endpoint ([1]; 1200 mg once daily, N=72): 35%; Resolution of NASH and improvement of liver fibrosis ≥1 Stage (E1), number of patients reaching endpoint ([1]; pooled lanifibranor group (800 or 1200 mg once daily), N=142): 42 patients; Resolution of NASH and improvement of liver fibrosis ≥1 Stage (E1), patients reaching endpoint ([1]; pooled lanifibranor group (800 or 1200 mg once daily), N=142 with pre- and post-treatment biopsies): 30%; Percentage of patients with a decrease of at least 2 points in SAF-A score without worsening of fibrosis, compared to placebo ([2]; daily dose of 1200 mg, versus placebo): significantly higher; Secondary endpoints (NASH resolution and fibrosis improvement, NASH resolution without worsening of fibrosis, improvement of fibrosis without worsening of NASH), compared to placebo ([2]; lanifibranor groups versus placebo, NASH-CRN): more favorable than placebo
